Each structure is given as a SMILES string.

The assay has as its system ULK. The assay is described as follows: ULK radiometric assay (33P incorporation onto MBP substrate, glass fiber capture filter). The settings on record: ULK Biochemical activity; 20 uM ATP, 0.2 mg/mL MBP; averages of at least two independent experiments. As to the method: ULK activity was measured using a radiometric assay, to measure the incorporation of radiolabelled ^33P onto MBP substrate using a glass fiber capture filter method. Reaction conditions were 0.2 mg/mL MBP, 20 uM ATP (0.25 μCi/well), 50 mM Tris HCl, pH7.5, 10 mM MgCl2, 0.1% beta-mercaptoethanol, 0.1 mM EGTA, 0.01% BSA. Ten point Half log Compound dilution series were prepared in 100% DMSO and added to the reaction to give final assay concentration of 10% DMSO. Compounds were tested in duplicate and values normalized to 10% DMSO only controls. The data were fitted to a four parameter fit equation and the IC50 values shown are averages of at least two independent experiments.
As usually defined, the IC50 is the concentration at which inhibition is half-maximal. A higher IC50 goes with weaker potency in that assay. In the case of `O=C1CCCCN1CCCNc1nc(Nc2cc(S(=O)(=O)N3CCNCC3)cc3c2OCC3)ncc1C(F)(F)F` [Example 52, 1-[3-[[2-[(5-Piperazin-1-ylsulfonyl-2,3-dihydrobenzofuran-7-yl)amino]-5-(trifluoromethyl)pyrimidin-4-yl]amino]propyl]piperidin-2-one], the IC50 lay in the range of 200 to 1000 nM. For `COc1cc2c(cc1Nc1ncc(C(F)(F)F)c(NCC3CNCCO3)n1)CNCC2` (stereo not shown) [Example 78, N2-(6-methoxy-1,2,3,4-tetrahydroisoquinolin-7-yl)-N4-(morpholin-2-ylmethyl)-5-(trifluoromethyl)pyrimidine-2,4-diamine], the IC50 was in the range of 200 to 1000 nM. Compound `COc1cc2c(cc1Nc1ncc(C(F)(F)F)c(NCCCN3CCCCC3=O)n1)C(=O)N(C)C2` [Example 37, 5-Methoxy-2-methyl-6-[[4-[3-(2-oxo-1-piperidyl)propylamino]-5-(trifluoromethyl)pyrimidin-2-yl]amino]isoindolin-1-one] gave an IC50 of at least 1000 nM. Turning to `COc1cc(C(=O)N(C)C)ccc1Nc1ncc(C(F)(F)F)c(NCCCN2CCCCC2=O)n1` [Example 40, 3-Methoxy-N,N-dimethyl-4-[[4-[3-(2-oxo-1-piperidyl)propylamino]-5-(trifluoromethyl)pyrimidin-2-yl]amino]benzamide], the IC50 was at least 1000 nM. As for `CN(C)CCCN(C)c1nc(Nc2ccc3c(c2)CCNC3)ncc1C(F)(F)F` [Example 64, N4-[3-(dimethylamino)propyl]-N4-methyl-N2-(1,2,3,4-tetrahydroisoquinolin-6-yl)-5-(trifluoromethyl)pyrimidine-2,4-diamine], the half-inhibitory concentration (IC50) was 200 to 1000 nM.

Compound `O=C1CCCCN1CCCNc1nc(Nc2ccc(N3CCOCC3)cc2Cl)ncc1C(F)(F)F` [Example 54, 1-[3-[[2-(2-Chloro-4-morpholino-anilino)-5-(trifluoromethyl)pyrimidin-4-yl]amino]propyl]piperidin-2-one] yielded an IC50 below 200 nM. Regarding `FC(F)(F)c1cnc(Nc2ccc3c(c2)CCNC3)nc1NCC1CNCCO1` (stereo not shown) [Example 63, N4-(morpholin-2-ylmethyl)-N2-(1,2,3,4-tetrahydroisoquinolin-6-yl)-5-(trifluoromethyl)pyrimidine-2,4-diamine], the IC50 is below 200 nM. In turn, `FC(F)(F)c1cnc(Nc2ccc(N3CCOCC3)cc2)nc1NCCC1CCNCC1` [Example 89, N2-(4-morpholinophenyl)-N4-[2-(4-piperidyl)ethyl]-5-(trifluoromethyl)pyrimidine-2,4-diamine] had an IC50 of 200 to 1000 nM. Turning to `CN1CCc2cc(Nc3ncc(C4CC4)c(NCCCN4CCCCC4=O)n3)ccc2C1` [Example 11, 1-(3-((5-Cyclopropyl-2-((2-methyl-1,2,3,4-tetrahydroisoquinolin-6-yl)amino)pyrimidin-4-yl)amino)propyl)piperidin-2-one], the IC50 is below 200 nM. As to `N[C@H]1CC[C@H](Nc2nc(Nc3ccc(N4CCOCC4)cc3)ncc2C(F)(F)F)CC1` [Example 88, N4-(4-aminocyclohexyl)-N2-(4-morpholinophenyl)-5-(trifluoromethyl)pyrimidine-2,4-diamine], the IC50 lay in the range of 200 to 1000 nM. On to `FC(F)(F)c1cnc(Nc2ccc(N3CCOCC3)cc2)nc1NCCc1c[nH]cn1` [Example 91, N4-[2-(1H-imidazol-4-yl)ethyl]-N2-(4-morpholinophenyl)-5-(trifluoromethyl)pyrimidine-2,4-diamine], for which the concentration for half-maximal inhibition (IC50) was in the range of 200 to 1000 nM. In the case of `Cn1cc(Nc2ncc(C(F)(F)F)c(NCCCN3CCCCC3=O)n2)c(OCC(F)(F)F)n1` [Example 48, 1-[3-[[2-[[1-Methyl-3-(2,2,2-trifluoroethoxy)pyrazol-4-yl]amino]-5-(trifluoromethyl)pyrimidin-4-yl]amino]propyl]piperidin-2-one] it was 200 to 1000 nM; in that of `COc1cc(COC(C)C)ccc1Nc1ncc(C(F)(F)F)c(NCCCN2CCCCC2=O)n1` [Example 35, 1-[3-[[2-[4-(Isopropoxymethyl)-2-methoxy-anilino]-5-(trifluoromethyl)pyrimidin-4-yl]amino]propyl]piperidin-2-one], at least 1000 nM.

The record behind these values is patent US20240208934A1, “ULK1/2 INHIBITORS AND THEIR USE THEREOF” (LifeArc, priority 2021, published 2024).
